# Test results as given in US20110098180A1, “Herbicide-Resistant Plants, And Polynucleotides And Methods For Providing Same” (United States Department of Agriculture, priority 2002, published 2011).
# How the values were obtained:
# [1] = system: Hydrilla PDS Leu^425 → Pro; test: Fluridone enzyme inhibition assay, other substitutions (Table 3); format: biochemical, Hydrilla verticillata
# Experimental: (§1) To explore whether mutations at positions other than 304 of the hydrilla PDS enzyme and corresponding positions of other plant PDS enzymes also confer herbicide resistance, mutations discovered in Synechococcus strain PCC7942 (Leu^320→Pro; Val^403→Gly; Leu^436→Arg) were introduced into the hydrilla PDS sequence at the corresponding locations, and the resulting PDS enzymes tested for resistance.
# (§2) Phytoene desaturase activity and its inhibition by herbicides was determined using an in vitro system using components derived from the in vivo production of phytoene and phytoene desaturase proteins. All mutations described in Examples 3 and 4 were tested. […] The clones were used for the heterologous expression of Hydrilla-PDS-enzyme. In particular, bacterial cultures were grown from single colonies overnight in Wu-broth (6.27 g/L K2HPO4, 1.8 g/L KH2PO4, 0.5 g/L Na-citrate, 0.9 g/L (NH4)2SO4, 10 g/L tryptone, 5 g/L yeast extract, 10 g/L NaCl, 44 ml/L glycerol, 0.1 mM MgSO4, pH 7.2) with kanamycin. 1-mL was aliquoted in centrifuge tube and stored at −80° C. For expression, 1 L LB-medium with kanamycin was inoculated with 1-mL Wu-culture and grown for 24 h at 37° C. to stationary phase with shaking at 200 rpm. The cells were collected by centrifugation at 2000×g. All of the following steps were done at 4° C. unless otherwise noted. Active soluble PDS enzyme was extracted by lysing the transformed E. coli cells using a French Press at 20,000 psi in assay buffer consisting of 100 mM Tris-HCl, pH 7.2, 10 mM magnesium-chloride, 0.1 mM NADP, 0.1 mM FAD, 10 mM cysteine, 5 mM DTT, 1 mM aminocaproic acid, and 1 μg/ml leupeptin. The soluble fraction containing PDS activity was obtained by centrifugation for 10 min at 1200×g. After 24 h they were centrifuged down and used in PDS enzyme activity assays as described below.
# (§3) Generally, PDS protein fractions prepared as described above (Non-His-tagged and His-tagged) were mixed with a soluble fraction from phytoene-producing E. coli cells. […]
# [2] = system: Hydrilla PDS Leu^542 → Arg; test: as above; format: biochemical, Hydrilla verticillata
# Experimental: as §1, §2, §3
# [3] = system: Hydrilla PDS Val^509 → Gly; test: as above; format: biochemical, Hydrilla verticillata
# Experimental: as §1, §2, §3
# [4] = molecular target: T1, maize PDS Arg→His at position 292 (Zea mays, UniProt P49086, R292H); test: Mutant maize PDS enzyme resistance test; format: biochemical
# T1 construct: vector-encoded N-terminal residues of pBluescript SK+ (in-frame fusion); made in house; host or cells: E. coli TOP10 (clone pMPDS3-33 from E. T. Wurtzel, mutagenised in house)
# T1 sequence (P49086 97-571 R292H): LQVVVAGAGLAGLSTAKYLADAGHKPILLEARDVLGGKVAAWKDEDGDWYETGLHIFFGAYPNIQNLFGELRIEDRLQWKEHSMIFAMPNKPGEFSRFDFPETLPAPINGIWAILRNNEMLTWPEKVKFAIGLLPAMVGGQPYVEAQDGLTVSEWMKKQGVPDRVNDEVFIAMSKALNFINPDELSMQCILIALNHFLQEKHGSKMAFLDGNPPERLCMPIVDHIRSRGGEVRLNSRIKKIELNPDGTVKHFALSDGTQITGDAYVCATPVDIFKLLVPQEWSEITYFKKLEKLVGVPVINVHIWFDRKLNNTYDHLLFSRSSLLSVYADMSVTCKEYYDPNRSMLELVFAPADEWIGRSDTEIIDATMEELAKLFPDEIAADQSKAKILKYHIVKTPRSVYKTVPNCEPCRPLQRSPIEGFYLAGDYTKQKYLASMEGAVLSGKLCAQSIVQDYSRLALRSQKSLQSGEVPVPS
# From the text: The same mutagenesis procedure as described in the Examples above was used to convert the same key arginine amino acid (position 292, sequence ID No. 6) to histidine in corn PDS. Mutagenesis primers are listed below. A maize cDNA clone of PDS, that actively expressed PDS (basically sequence U37285 ligated in frame into pBluescript SK^+ and cloned in TOP10-cells) was provided by Eleanore T. Wurtzel, N Y (pMPDS3-33 as described in Z H Li, P D Matthews, B Burr & E T Wurtzel: Cloning and characterization of a maize cDNA encoding phytoene desaturase, an enzyme of the carotenoid biosynthetic pathway. Plant Molecular Biology 30: 269-279, 1996).
# The resulting mutant maize PDS polynucleotide and protein were tested generally as described in Example 5 above. The mutant maize PDS enzyme ehxibited 50-fold to 60-fold resistance factor as compared to the wild type maize PDS enzyme.
substance,measurement,setting,value
Fluridone,R/S,[1],1.6
same,R/S,[2],4.5
same,R/S,[3],14.5
same,resistance of modified maize PDS enzyme vs wild-type maize PDS enzyme,[4],substantially more resistant
